Measurements: patent US20080312200A1, “Medicament Comprising A Hormone Combination” (Grunenthal GmbH, priority 2006, published 2008)

Tests used:
GABAA receptors = test: Influence on the binding of [3H]muscimol to GABAA receptors (rat cerebral cortex membranes); settings: 5 nM [3H]muscimol
Procedure: The following determinations of the influence of allopregnanolone, 3-α-OH-CMA or 3-β-OH-CMA on the binding of muscimol to GABAA receptors (rat) are based on the experimental methods published by Snodgrass, S. R. (Nature, 1979, vol. 273, p. 392-394). The corresponding disclosure is hereby introduced as a reference and is part of the disclosure of the present application.
Membrane preparations are produced from rat cerebral cortex material. The reference substance used is 5 nM of [^3H] muscimol; 10 μM of muscimol are used for determining nonspecific binding. The incubation period of the substances ([^3H]muscimol, allopregnanolone) on the receptor amounts in each case to 10 minutes at a temperature of approx. 4° C. The stock solution (5×10^−2 M) of allopregnanolone is in each case prediluted 1:10 in 75% strength DMSO and then further diluted 1:5 in 25% strength DMSO. The final concentration of allopregnanolone in the test is in each case 1×10^−10 M, 1×10^−9 M, 1×10^−8 M, 1×10^−7 M, 1×10^−6 M and 1×10^−5 M. After the above-stated incubation period of the substances, the incubation batches are filtered using standard methods and washed and the radioactivity of the filters is determined with a scintillation counter. Such standard methods are known to a person skilled in the art. The experiments are in each case carried out on duplicate batches.
The influence of 3-α-OH-CMA or 3-β-OH-CMA on the binding of muscimol to GABAA receptors (rat) is determined in a manner similar to the above-described method. 3-α-OH-CMA or 3-β-OH-CMA is used instead of allopregnanolone.

[1] = biological target: T1, human progesterone receptor (Homo sapiens, UniProt P06401); test: Affinity for the human progesterone receptor ([3H]R 5020 displacement, MCF-7 cytosol); type: binding; settings: for IC50: 2 nM [3H]R 5020, MCF-7 cytosol, 20 hours, approx. 4° C.; for Ki: Cheng-Prusoff from IC50
T1 construct: The cytosolic fractions of MCF-7 cells, which contain the human progesterone receptor, are used; endogenous in cells; host or cells: MCF-7 cells (cytosolic fraction)
T1 sequence (P06401 1-933): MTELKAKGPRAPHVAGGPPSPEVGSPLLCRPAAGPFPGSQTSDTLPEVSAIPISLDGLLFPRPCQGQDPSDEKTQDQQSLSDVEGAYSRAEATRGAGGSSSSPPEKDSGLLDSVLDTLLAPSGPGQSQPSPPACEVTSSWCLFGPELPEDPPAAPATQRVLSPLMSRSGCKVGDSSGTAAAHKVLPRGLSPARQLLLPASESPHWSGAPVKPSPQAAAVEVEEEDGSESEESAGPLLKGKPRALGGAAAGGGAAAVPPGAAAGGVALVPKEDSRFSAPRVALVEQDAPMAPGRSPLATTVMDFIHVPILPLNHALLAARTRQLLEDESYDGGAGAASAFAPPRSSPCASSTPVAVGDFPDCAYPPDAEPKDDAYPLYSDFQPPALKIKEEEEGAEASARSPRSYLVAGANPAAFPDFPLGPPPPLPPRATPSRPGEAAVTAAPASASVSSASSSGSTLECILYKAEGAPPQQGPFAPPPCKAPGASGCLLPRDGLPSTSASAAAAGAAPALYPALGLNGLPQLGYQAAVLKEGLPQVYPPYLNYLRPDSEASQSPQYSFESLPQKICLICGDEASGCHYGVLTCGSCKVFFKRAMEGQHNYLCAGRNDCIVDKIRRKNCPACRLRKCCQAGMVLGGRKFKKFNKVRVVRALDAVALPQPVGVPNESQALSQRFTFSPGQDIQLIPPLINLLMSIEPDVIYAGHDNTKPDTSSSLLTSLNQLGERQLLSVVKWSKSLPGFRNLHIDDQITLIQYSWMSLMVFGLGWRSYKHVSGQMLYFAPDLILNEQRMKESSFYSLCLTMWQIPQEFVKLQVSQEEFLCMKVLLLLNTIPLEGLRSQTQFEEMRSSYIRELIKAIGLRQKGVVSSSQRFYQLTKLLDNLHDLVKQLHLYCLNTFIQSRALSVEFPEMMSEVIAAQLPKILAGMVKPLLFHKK
Procedure: (§1) The following determination of the affinity of 3-α-OH-CMA or 3-β-OH-CMA for the human progesterone receptor is based on the experimental methods published by Eckert et al. (Cancer Research, 1982, vol. 42, pp. 139-144). The corresponding disclosure is hereby introduced as a reference and is part of the disclosure of the present application.
The cytosolic fractions of MCF-7 cells, which contain the human progesterone receptor, are used. The reference substance used is 2 nM of [^3H] R 5020; 1 μM of R 5020 is used for determining nonspecific binding. The incubation period of the substances ([^3H] R 5020, 3-α-OH-CMA or 3-β-OH-CMA) on the receptor amounts in each case to 20 hours at a temperature of approx. 4° C. Stock solutions (5×10^−2 M) of 3-α-OH-CMA or 3-β-OH-CMA are in each case prediluted 1:10 in 75% strength DMSO and then further diluted 1:5 in 25% strength DMSO. The final concentrations of 3-α-OH-CMA or 3-β-OH-CMA in the test are 3×10^−10 M, 3×10^−9 M, 1×10^−8 M, 3×10^−8 M, 1×10^−7 M, 3×10^−7 M, 1×10^−6 M and 1×10^−5 M. After the above-stated incubation period of the substances, the incubation batches are filtered using standard methods and washed and the radioactivity of the filters is determined with a scintillation counter. Such standard methods are known to a person skilled in the art. The experiments are in each case carried out on duplicate batches.
The corresponding IC50 values are calculated by nonlinear regression analysis of the displacement curves using the Hill curve fitting formula. A person skilled in the art is aware of such a calculation procedure.
The corresponding Ki values (inhibition constants) are determined using the Cheng-Prusoff equation (Ki=IC50/(1+(L/KD)), where L denotes the concentration of the radioligand in the test and KD the affinity of the radioligand for the receptor).

human androgen receptor = biological target: T2, human androgen receptor (Homo sapiens, UniProt P10275, T878A); test: Affinity for the human androgen receptor ([3H]methyltrienolone displacement, LNCaP cytosol); type: binding
T2 construct: The cytosolic fractions of LNCaP cells, which contain the human androgen receptor, are used; endogenous in cells; host or cells: LNCaP cells (cytosolic fraction)
T2 sequence (P10275 1-920 T878A): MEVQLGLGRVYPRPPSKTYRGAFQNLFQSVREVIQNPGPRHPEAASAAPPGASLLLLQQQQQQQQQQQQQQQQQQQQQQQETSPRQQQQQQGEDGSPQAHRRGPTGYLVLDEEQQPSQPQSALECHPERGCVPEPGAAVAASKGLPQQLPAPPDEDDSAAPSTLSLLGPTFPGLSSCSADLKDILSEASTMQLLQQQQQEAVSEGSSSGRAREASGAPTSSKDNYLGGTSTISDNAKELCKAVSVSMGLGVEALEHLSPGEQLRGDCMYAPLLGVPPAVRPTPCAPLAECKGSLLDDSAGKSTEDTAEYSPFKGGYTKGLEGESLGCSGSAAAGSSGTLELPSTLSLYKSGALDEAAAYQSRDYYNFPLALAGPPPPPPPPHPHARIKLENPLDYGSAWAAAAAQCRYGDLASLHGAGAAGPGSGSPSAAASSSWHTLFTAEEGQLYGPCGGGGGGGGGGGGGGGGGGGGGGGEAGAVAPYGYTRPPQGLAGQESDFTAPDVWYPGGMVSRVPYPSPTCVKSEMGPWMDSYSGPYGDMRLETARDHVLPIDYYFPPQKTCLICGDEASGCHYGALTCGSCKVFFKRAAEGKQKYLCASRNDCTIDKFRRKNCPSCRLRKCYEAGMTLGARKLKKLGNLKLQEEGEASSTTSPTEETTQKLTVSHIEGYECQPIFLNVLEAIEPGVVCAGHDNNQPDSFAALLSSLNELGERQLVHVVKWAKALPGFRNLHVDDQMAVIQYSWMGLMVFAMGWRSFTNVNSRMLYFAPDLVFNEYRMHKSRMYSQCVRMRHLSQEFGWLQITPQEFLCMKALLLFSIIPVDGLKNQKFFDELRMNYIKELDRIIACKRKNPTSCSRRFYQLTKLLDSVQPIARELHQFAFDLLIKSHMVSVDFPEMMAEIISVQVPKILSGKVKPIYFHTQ
Procedure: as §1, with “androgen” for “progesterone”, “Zava” for “Eckert”, “(Endocrinology, 1979,” for “(Cancer Research, 1982,”, “104,” for “42,”, “1007-1012).” for “139-144).”
The cytosolic fractions of LNCaP cells, which contain the human androgen receptor, are used. The reference substance used is 0.5 nM of [^3H]methyltrienolone; 1 μM of mibolerone is used for determining nonspecific binding. The incubation period of the substances ([^3H]methyltrienolone, 3-α-OH-CMA or 3-β-OH-CMA) on the receptor amounts in each case to 24 hours at a temperature of approx. 4° C. The stock solutions, the dilution series of 3-α-OH-CMA or 3-β-OH-CMA, the washing steps, the determination of radioactivity, and the methods for calculating the particular IC50 and Ki values match the experimental protocol described in point 2).

## CC(=O)O[C@]1(C(C)=O)CC[C@H]2[C@@H]3C=C(Cl)C4=C[C@H](O)CC[C@]4(C)[C@H]3CC[C@@]21C [3-α-OH-CMA, 3α-hydroxy-6-chloro-17α-acetoxy-4,6-pregnadien-20-one]
GABAA receptors; 0.001 μM test substance
  increase of binding of radioactively labelled muscimol: 12%
[1]
  IC50: 0.039 µM
  Ki: 0.013 µM
Human androgen receptor
  IC50: 0.1 µM
  Ki: 0.083 µM

## CC(=O)[C@H]1CC[C@H]2[C@@H]3CC[C@H]4C[C@H](O)CC[C@]4(C)[C@H]3CC[C@]12C [allopregnanolone, reference compound]
GABAA receptors; 1 μM test substance, 10 min, approx. 4° C.
  increase of binding of radioactively labelled muscimol: 38%

## CC(=O)O[C@]1(C(C)=O)CC[C@H]2[C@@H]3C=C(Cl)C4=C[C@@H](O)CC[C@]4(C)[C@H]3CC[C@@]21C [3-β-OH-CMA, 3β-hydroxy-6-chloro-17α-acetoxy-4,6-pregnadien-20-one]
GABAA receptors; 0.1 μM test substance
  increase of binding of radioactively labelled muscimol: 31%
[1]
  IC50: 0.018 µM
  Ki: 0.006 µM
Human androgen receptor
  IC50: 0.025 µM
  Ki: 0.02 µM
